Among the data in PubChem BioAssay (NCI) are TGI and GI50 values, retold here.

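The compound was tested at five concentrations on cells cultured in 96-well plates, with a 48-hour exposure period. At the GI50, growth is halved. TGI: concentration producing complete growth inhibition.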

Some test systems named below: NCI-H460 lung; HCT-116 colon; HOP-62 NSCLC; OVCAR-3 ovarian; NCI-H522 lung; LOX IMVI melanoma; BT-549 breast; MALME-3M melanoma; SK-MEL-5 melanoma; SF-268 CNS.
Holding throughout (test): inhibition of tumour cell growth, NCI panel, 48 h

Regarding `COC(=O)N/N=C(/c1nc2ccc([N+](=O)[O-])cc2[nH]c1=O)C(O)c1ccc(OC)c(OC)c1` (stereo not given), the TGI in the test on NCI-H460 lung is more than 100 µM; in the test on HCT-116 colon it was more than 100 µM; in the test with HOP-62 NSCLC, more than 100 µM; with OVCAR-3 ovarian it was more than 100 µM; in the test on NCI-H522 lung, more than 100 µM; in the test on LOX IMVI melanoma, more than 61.7 µM. Besides, the TGI in the test with BT-549 breast was more than 100 µM; with MALME-3M melanoma it was more than 100 µM; in the test with SK-MEL-5 melanoma, more than 78.7 µM; in the test with SF-268 CNS it was more than 100 µM.

As to `Cc1cc2c(cc1Cl)N1C(=O)NS(=O)(=O)N=C1NS2(=O)=O`, the GI50 with NCI-H460 lung, in the test with HCT-116 colon, in the test on HOP-62 NSCLC, in the test on OVCAR-3 ovarian, with NCI-H522 lung and in the test with LOX IMVI melanoma was more than 100 µM in each case. The GI50 with BT-549 breast, in the test with MALME-3M melanoma, with SK-MEL-5 melanoma and in the test on SF-268 CNS was more than 100 µM in each case. The TGI in the test on NCI-H460 lung, in the test with HCT-116 colon, with HOP-62 NSCLC, in the test on OVCAR-3 ovarian, in the test with NCI-H522 lung and in the test on LOX IMVI melanoma was more than 100 µM in each case. Besides, the TGI in the test with BT-549 breast, in the test with MALME-3M melanoma, with SK-MEL-5 melanoma and in the test on SF-268 CNS was more than 100 µM each time.

In the case of `COc1cc(NC(C)CCCN2C(=O)c3ccccc3C2=O)c2ncccc2c1OC` (stereo not given), the GI50 in the test on NCI-H460 lung is 35.5 µM; with HCT-116 colon it was 31.2 µM; with HOP-62 NSCLC it was 52.6 µM; in the test with OVCAR-3 ovarian, 25.8 µM; with NCI-H522 lung, 35.4 µM; with LOX IMVI melanoma it was 28.2 µM. Also, the GI50 in the test on BT-549 breast was 23.4 µM; in the test with MALME-3M melanoma it was 22.9 µM; in the test with SK-MEL-5 melanoma, 16.5 µM; with SF-268 CNS, 55.7 µM. Further, the TGI in the test on NCI-H460 lung, in the test on HCT-116 colon, with HOP-62 NSCLC, with OVCAR-3 ovarian, with NCI-H522 lung and in the test with LOX IMVI melanoma was more than 100 µM throughout. For the same molecule, the TGI is 83.7 µM in the test on BT-549 breast, 58.3 µM in the test on MALME-3M melanoma, 30.1 µM in the test on SK-MEL-5 melanoma and more than 100 µM with SF-268 CNS.

On to `Fc1ccc(-c2c(-c3ccncc3)[nH]c3nccnc23)cc1`, for which the GI50 was 7.11 µM with NCI-H460 lung; 6.39 µM in the test with HCT-116 colon; more than 15.3 µM in the test with HOP-62 NSCLC; 10.3 µM in the test on OVCAR-3 ovarian; more than 11.1 µM in the test with NCI-H522 lung; 11.1 µM in the test with LOX IMVI melanoma. Also, the GI50 in the test with BT-549 breast is more than 15.2 µM; in the test with MALME-3M melanoma it was more than 9.39 µM; in the test with SK-MEL-5 melanoma, 11 µM; in the test on SF-268 CNS, 10.9 µM. Further, the TGI was more than 21.3 µM in the test with NCI-H460 lung; more than 22.1 µM with HCT-116 colon; more than 25 µM in the test on HOP-62 NSCLC; more than 25 µM with OVCAR-3 ovarian; more than 21.6 µM in the test on NCI-H522 lung; more than 25 µM in the test with LOX IMVI melanoma. Further, the TGI was more than 25 µM with BT-549 breast, more than 17.4 µM in the test with MALME-3M melanoma, more than 25 µM with SK-MEL-5 melanoma and more than 25 µM in the test on SF-268 CNS.

On to `N=C1C(c2nc3ccccc3s2)=C(O)CN1c1cc(Cl)cc(Cl)c1`, for which the GI50 is 18.5 µM with NCI-H460 lung; 87.2 µM in the test with HCT-116 colon; 46.7 µM in the test with HOP-62 NSCLC; 88.2 µM with OVCAR-3 ovarian; more than 100 µM with LOX IMVI melanoma; more than 100 µM in the test on BT-549 breast. Also, the GI50 in the test on MALME-3M melanoma is 29.4 µM; in the test with SK-MEL-5 melanoma, more than 100 µM; with SF-268 CNS it was 32.3 µM. Also, the TGI in the test with NCI-H460 lung, with HCT-116 colon, in the test with HOP-62 NSCLC, in the test on OVCAR-3 ovarian, in the test on LOX IMVI melanoma and in the test with BT-549 breast was more than 100 µM throughout. The TGI in the test with MALME-3M melanoma, with SK-MEL-5 melanoma and in the test on SF-268 CNS was more than 100 µM in each case.

With `COc1ccc(/C=C2/CN(CCC#N)C/C(=C\c3ccc(OC)cc3)C2=O)cc1`, the GI50 in the test with NCI-H460 lung is 1.97 µM; in the test on HCT-116 colon it was 0.829 µM; in the test with HOP-62 NSCLC, 2.17 µM; with OVCAR-3 ovarian, 2.79 µM; in the test with NCI-H522 lung it was 1.83 µM; in the test on LOX IMVI melanoma, 1.7 µM. In addition, the GI50 was 2.1 µM in the test with BT-549 breast, 2.95 µM with MALME-3M melanoma, 1.39 µM in the test with SK-MEL-5 melanoma and 3.27 µM in the test with SF-268 CNS. Moreover, the TGI came out at 4.75 µM with NCI-H460 lung; 2.38 µM in the test on HCT-116 colon; 4.79 µM with HOP-62 NSCLC; 7.46 µM with OVCAR-3 ovarian; 4.32 µM in the test with NCI-H522 lung; 4.03 µM in the test on LOX IMVI melanoma. For the same molecule, the TGI with BT-549 breast came to 4.73 µM; in the test on MALME-3M melanoma, 8.58 µM; in the test with SK-MEL-5 melanoma, 2.74 µM; in the test with SF-268 CNS it was 36.7 µM.

Regarding `N[C@@H](CSSC[C@H](N)C(=O)N1CCn2cc(-c3ccccc3)nc2[C@@H]1CC1CCCCC1)C(=O)N1CCn2cc(-c3ccccc3)nc2[C@@H]1CC1CCCCC1`, the GI50 was 1.92 µM in the test with NCI-H460 lung; 1.14 µM in the test on HCT-116 colon; 1.59 µM in the test with HOP-62 NSCLC; 1.41 µM in the test on OVCAR-3 ovarian; 1.68 µM in the test with NCI-H522 lung; 1.34 µM in the test on LOX IMVI melanoma. For the same molecule, the GI50 in the test on BT-549 breast was 2.23 µM; in the test on MALME-3M melanoma, 1.5 µM; in the test on SK-MEL-5 melanoma it was 0.361 µM; in the test on SF-268 CNS, 0.344 µM. The TGI in the test on NCI-H460 lung is 6.4 µM; with HCT-116 colon, 2.51 µM; in the test with HOP-62 NSCLC, 3.25 µM; with OVCAR-3 ovarian, 2.76 µM; in the test with NCI-H522 lung, 3.39 µM; in the test with LOX IMVI melanoma, 2.99 µM. The TGI with BT-549 breast worked out at 3.91 µM; in the test with MALME-3M melanoma it was 2.99 µM; in the test on SK-MEL-5 melanoma it was 1.53 µM; in the test on SF-268 CNS, 2.46 µM.

In the case of `CC1COCCN1CC#CCOC(=O)c1cc2ccccc2oc1=O` (stereo not given), the GI50 in the test with NCI-H460 lung, with HCT-116 colon, with HOP-62 NSCLC, with OVCAR-3 ovarian, in the test on NCI-H522 lung and in the test with LOX IMVI melanoma was more than 100 µM throughout. Further, the GI50 with BT-549 breast, with MALME-3M melanoma, with SK-MEL-5 melanoma and with SF-268 CNS was more than 100 µM in each case. The TGI in the test with NCI-H460 lung, in the test on HCT-116 colon, with HOP-62 NSCLC, in the test with OVCAR-3 ovarian, in the test on NCI-H522 lung and with LOX IMVI melanoma was more than 100 µM each time. Besides, the TGI in the test with BT-549 breast, in the test on MALME-3M melanoma, in the test on SK-MEL-5 melanoma and with SF-268 CNS was more than 100 µM each time.

In the case of `COc1ccc2c(c1)C(=O)c1c-2c(N2CCN(C(=O)CCNCCNCCO)CC2)nc2ccccc12`, the GI50 was 4.61 µM in the test with NCI-H460 lung; 2.36 µM in the test on HCT-116 colon; 20.6 µM in the test on OVCAR-3 ovarian; 17.5 µM with NCI-H522 lung; 12.3 µM in the test with LOX IMVI melanoma; 7.14 µM in the test with BT-549 breast. The GI50 in the test on MALME-3M melanoma was 26.6 µM; with SK-MEL-5 melanoma it was 18 µM; in the test with SF-268 CNS it was 14.3 µM. In addition, the TGI with NCI-H460 lung was determined as 19.6 µM; with HCT-116 colon it was 5.52 µM; in the test with OVCAR-3 ovarian, 43.2 µM; with NCI-H522 lung, 46.8 µM; in the test on LOX IMVI melanoma, 31.6 µM; with BT-549 breast, 21.2 µM. Also, the figures for the TGI in the test on MALME-3M melanoma, with SK-MEL-5 melanoma and with SF-268 CNS were 58 µM, 33.8 µM and 36.9 µM, respectively.

Consider `C#Cc1ccc(-n2c(/C=C/c3ccc4ccccc4c3)nc3ncccc3c2=O)cc1`, for which the GI50 in the test with NCI-H460 lung was 2.88 µM; in the test with HOP-62 NSCLC it was 7.45 µM; in the test on NCI-H522 lung, 5.11 µM; in the test with LOX IMVI melanoma, 0.517 µM; with BT-549 breast, 1.98 µM; in the test with MALME-3M melanoma, 4.97 µM. Moreover, the GI50 in the test on SK-MEL-5 melanoma was 1.16 µM; in the test on SF-268 CNS it was 2.6 µM. Besides, the TGI was more than 100 µM in the test with NCI-H460 lung; more than 100 µM with HOP-62 NSCLC; more than 100 µM in the test on NCI-H522 lung; 3.11 µM in the test with LOX IMVI melanoma; 5.45 µM in the test on BT-549 breast; more than 100 µM in the test with MALME-3M melanoma. The TGI is 2.52 µM in the test with SK-MEL-5 melanoma and more than 100 µM in the test with SF-268 CNS.

Turning to `O=C(/C=C/c1ccccc1)OCC1=C[C@@H](O)[C@@H]2C=CO[C@@H](OC3OC(CO)C(O)C(O)C3O)[C@H]12` (stereo not given in full), the TGI with HCT-116 colon, with HOP-62 NSCLC, in the test on OVCAR-3 ovarian, with NCI-H522 lung, with LOX IMVI melanoma and in the test on BT-549 breast was more than 100 µM throughout. For the same molecule, the TGI in the test with MALME-3M melanoma, in the test with SK-MEL-5 melanoma and with SF-268 CNS was more than 100 µM in each case.

As to `CC1(C)OC(=O)C(=Cc2ccc([N+](=O)[O-])s2)C(=O)O1`, the TGI is more than 100 µM in the test with NCI-H460 lung; 9.84 µM in the test on HCT-116 colon; 35.1 µM with HOP-62 NSCLC; 23.2 µM with OVCAR-3 ovarian; 32.6 µM with LOX IMVI melanoma; 26.8 µM in the test with BT-549 breast. For the same molecule, the TGI in the test with MALME-3M melanoma worked out at 34.2 µM; in the test on SK-MEL-5 melanoma it was 30 µM; in the test on SF-268 CNS, 29.5 µM.
